Measured values: the supplement of paper PMC10307832

What was measured:
Assay in all cases: relative viability (nuclei count vs DMSO), 5 days (fraction); higher = more cells survive
Calu-6 = test system: Calu-6
Outline: (§1)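 Nuclei were stained with Hoechst during a one-step fixation (final 0.05% Triton X-100, 1% formaldehyde, 1 ug/ml Hoechst) carried out 5 days after dosing, then counted on 4× images. The cells, lung cancer lines in 1536-well plates, had been dosed by pin tool the day after seeding with one drug alone or a fixed anchor-drug dose plus five library-drug doses (not always all listed) in √10 steps. Relative viability is the nuclei count in treated wells divided by that in vehicle wells, and each value is the median of duplicate plates.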

EBC-1 = test system: EBC-1
Outline: as §1

IA-LM = test system: IA-LM
Outline: as §1

NCI-H1299 = test system: NCI-H1299
Outline: as §1

NCI-H1563 = test system: NCI-H1563
Outline: as §1

NCI-H1703 = test system: NCI-H1703
Outline: as §1

A549 = test system: A549
Outline: as §1

Cc1cnc(-c2cnc(NCCNc3ccc(C#N)cn3)nc2-c2ccc(Cl)cc2Cl)[nH]1 + CC(C)C[C@H](NC(=O)[C@H](Cc1ccccc1)NC(=O)c1cnccn1)B(O)O [Bortezomib] (partner 0.002 µM) gave a relative viability (Calu-6; first compound 0.08 µM) of 0.933, a relative viability (Calu-6; first compound 0.253 µM) of 0.996 and a relative viability (Calu-6; first compound 0.8 µM) of 1.06. It also gave a relative viability (Calu-6; first compound 2.53 µM) of 1.03, a relative viability (EBC-1; first compound 0.08 µM) of 0.607 and a relative viability (EBC-1; first compound 0.8 µM) of 0.546. The relative viability (EBC-1; first compound 2.53 µM) was 0.509, the relative viability (IA-LM; first compound 0.08 µM) was 0.849 and the relative viability (IA-LM; first compound 0.253 µM) was 0.855. It also gave a relative viability (IA-LM; first compound 0.8 µM) of 1.06, a relative viability (IA-LM; first compound 2.53 µM) of 0.891 and a relative viability (NCI-H1299; first compound 0.08 µM) of 1.05. The relative viability (NCI-H1299; first compound 0.253 µM) was 1, the relative viability (NCI-H1299; first compound 0.8 µM) was 1.02 and the relative viability (NCI-H1299; first compound 2.53 µM) was 0.969. For the same molecule, the relative viability (NCI-H1563; first compound 0.08 µM) was 0.831, the relative viability (NCI-H1563; first compound 0.253 µM) was 0.944 and the relative viability (NCI-H1563; first compound 0.8 µM) was 0.827. It also gave a relative viability (NCI-H1563; first compound 2.53 µM) of 0.914, a relative viability (NCI-H1703; first compound 0.08 µM) of 0.337 and a relative viability (NCI-H1703; first compound 0.253 µM) of 0.352. It also gave a relative viability (NCI-H1703; first compound 0.8 µM) of 0.5 and a relative viability (NCI-H1703; first compound 2.53 µM) of 0.699.

O=C(O)CCCCC(CCSCc1ccccc1)SCc1ccccc1 (stereo not drawn) [CPI-613] + CC1(C)CCC(c2ccc(Cl)cc2)=C(CN2CCN(c3ccc(C(=O)NS(=O)(=O)c4ccc(N[C@H](CCN5CCOCC5)CSc5ccccc5)c(S(=O)(=O)C(F)(F)F)c4)cc3)CC2)C1 [Navitoclax] (partner 0.5 µM) showed a relative viability (A549; first compound 5 µM) of 1.11, a relative viability (A549; first compound 15.81 µM) of 0.977 and a relative viability (A549; first compound 50 µM) of 1.09. It also gave a relative viability (A549; first compound 158.11 µM) of 0.308, a relative viability (A549; first compound 500 µM) of 0.0559 and a relative viability (Calu-6; first compound 5 µM) of 0.72. It also gave a relative viability (Calu-6; first compound 15.81 µM) of 0.744, a relative viability (Calu-6; first compound 50 µM) of 0.595 and a relative viability (Calu-6; first compound 158.11 µM) of 0.107. For the same molecule, the relative viability (Calu-6; first compound 500 µM) was 0.0529, the relative viability (EBC-1; first compound 5 µM) was 0.373 and the relative viability (EBC-1; first compound 15.81 µM) was 0.404. It also gave a relative viability (EBC-1; first compound 50 µM) of 0.397, a relative viability (EBC-1; first compound 158.11 µM) of 0.0793 and a relative viability (EBC-1; first compound 500 µM) of 0.0379. For the same molecule, the relative viability (IA-LM; first compound 5 µM) was 0.692, the relative viability (IA-LM; first compound 15.81 µM) was 0.707 and the relative viability (IA-LM; first compound 50 µM) was 0.685. For the same molecule, the relative viability (IA-LM; first compound 158.11 µM) was 0.0974, the relative viability (IA-LM; first compound 500 µM) was 0.0132 and the relative viability (NCI-H1299; first compound 5 µM) was 1.05. It also gave a relative viability (NCI-H1299; first compound 15.81 µM) of 1.05, a relative viability (NCI-H1299; first compound 50 µM) of 1.06 and a relative viability (NCI-H1299; first compound 158.11 µM) of 1.01. For the same molecule, the relative viability (NCI-H1299; first compound 500 µM) was 1.04, the relative viability (NCI-H1703; first compound 5 µM) was 1.01 and the relative viability (NCI-H1703; first compound 15.81 µM) was 0.967. The relative viability (NCI-H1703; first compound 50 µM) was 0.829, the relative viability (NCI-H1703; first compound 158.11 µM) was 0.144 and the relative viability (NCI-H1703; first compound 500 µM) was 0.0899.

Molecule O=c1[nH]c2ccccc2n1C1CCN(CCCC(c2ccc(F)cc2)c2ccc(F)cc2)CC1 [Pimozide] + CC1(C)CCC(c2ccc(Cl)cc2)=C(CN2CCN(c3ccc(C(=O)NS(=O)(=O)c4ccc(N[C@H](CCN5CCOCC5)CSc5ccccc5)c(S(=O)(=O)C(F)(F)F)c4)cc3)CC2)C1 [Navitoclax] (partner 0.5 µM) has a relative viability (A549; first compound 0.08 µM) of 1.28, a relative viability (A549; first compound 0.253 µM) of 1.31 and a relative viability (A549; first compound 0.8 µM) of 1.15. For the same molecule, the relative viability (A549; first compound 2.53 µM) was 1.14, the relative viability (A549; first compound 8 µM) was 0.987 and the relative viability (Calu-6; first compound 0.08 µM) was 0.785. The relative viability (Calu-6; first compound 0.253 µM) was 0.805, the relative viability (Calu-6; first compound 0.8 µM) was 0.844 and the relative viability (Calu-6; first compound 2.53 µM) was 0.704. The relative viability (Calu-6; first compound 8 µM) was 0.774, the relative viability (EBC-1; first compound 0.08 µM) was 0.356 and the relative viability (EBC-1; first compound 0.253 µM) was 0.493. For the same molecule, the relative viability (EBC-1; first compound 0.8 µM) was 0.367, the relative viability (EBC-1; first compound 2.53 µM) was 0.309 and the relative viability (EBC-1; first compound 8 µM) was 0.211. For the same molecule, the relative viability (IA-LM; first compound 0.08 µM) was 0.686, the relative viability (IA-LM; first compound 0.253 µM) was 0.723 and the relative viability (IA-LM; first compound 0.8 µM) was 0.923. It also gave a relative viability (IA-LM; first compound 2.53 µM) of 0.746, a relative viability (IA-LM; first compound 8 µM) of 0.728 and a relative viability (NCI-H1299; first compound 0.08 µM) of 1.04. For the same molecule, the relative viability (NCI-H1299; first compound 0.253 µM) was 0.969, the relative viability (NCI-H1299; first compound 0.8 µM) was 0.99 and the relative viability (NCI-H1299; first compound 2.53 µM) was 1.03. The relative viability (NCI-H1299; first compound 8 µM) was 1.03, the relative viability (NCI-H1703; first compound 0.08 µM) was 1.05 and the relative viability (NCI-H1703; first compound 0.253 µM) was 0.99. It also gave a relative viability (NCI-H1703; first compound 0.8 µM) of 0.982, a relative viability (NCI-H1703; first compound 2.53 µM) of 0.801 and a relative viability (NCI-H1703; first compound 8 µM) of 0.782.

For O=c1[nH]c2ccccc2n1C1CCN(CCCC(c2ccc(F)cc2)c2ccc(F)cc2)CC1 [Pimozide] + CC(C)C[C@H](NC(=O)[C@H](Cc1ccccc1)NC(=O)c1cnccn1)B(O)O [Bortezomib] (partner 0.002 µM), the relative viability (Calu-6; first compound 0.08 µM) was 1, the relative viability (Calu-6; first compound 0.253 µM) was 1.15 and the relative viability (Calu-6; first compound 0.8 µM) was 0.969. For the same molecule, the relative viability (Calu-6; first compound 2.53 µM) was 1.04, the relative viability (Calu-6; first compound 8 µM) was 0.856 and the relative viability (EBC-1; first compound 0.08 µM) was 0.517. For the same molecule, the relative viability (EBC-1; first compound 0.253 µM) was 0.557, the relative viability (EBC-1; first compound 0.8 µM) was 0.532 and the relative viability (EBC-1; first compound 2.53 µM) was 0.439. For the same molecule, the relative viability (EBC-1; first compound 8 µM) was 0.381, the relative viability (IA-LM; first compound 0.08 µM) was 0.789 and the relative viability (IA-LM; first compound 0.253 µM) was 0.792. For the same molecule, the relative viability (IA-LM; first compound 0.8 µM) was 0.856, the relative viability (IA-LM; first compound 2.53 µM) was 0.901 and the relative viability (IA-LM; first compound 8 µM) was 0.692. For the same molecule, the relative viability (NCI-H1299; first compound 0.08 µM) was 0.984, the relative viability (NCI-H1299; first compound 0.253 µM) was 1.05 and the relative viability (NCI-H1299; first compound 0.8 µM) was 0.975. The relative viability (NCI-H1299; first compound 2.53 µM) was 1.01, the relative viability (NCI-H1299; first compound 8 µM) was 0.976 and the relative viability (NCI-H1563; first compound 0.08 µM) was 0.848. For the same molecule, the relative viability (NCI-H1563; first compound 0.253 µM) was 0.936, the relative viability (NCI-H1563; first compound 0.8 µM) was 0.855 and the relative viability (NCI-H1563; first compound 2.53 µM) was 0.67. The relative viability (NCI-H1563; first compound 8 µM) was 0.583, the relative viability (NCI-H1703; first compound 0.08 µM) was 0.206 and the relative viability (NCI-H1703; first compound 0.253 µM) was 0.337. The relative viability (NCI-H1703; first compound 0.8 µM) was 0.379, the relative viability (NCI-H1703; first compound 2.53 µM) was 0.227 and the relative viability (NCI-H1703; first compound 8 µM) was 0.306.
